Reference: US20180055857A1, “TREATMENT OF ACNE VULGARIS WITH SEQUENTIAL TOPICAL FORMULATIONS COMPRISING ANTIMICROBIAL ORGANIC ACID ANIONS IN ALKALINE PHASE” (KANTIAN SCIENCES CORPORATION, priority 2015, published 2018)
Where two headings read alike, the source gives them in different places.

Legend:
Listeria monocytogenes = details: beef tissue briefly dipped in a 1% acid solution at 55° C.; cited from earlier work
E. coli O157:H7 = details: beef tissue briefly dipped in a 1% acid solution at 55° C.; cited from earlier work

Row | Compound | % HONO (pH 2.6) [%] | % NO2^− (pH 2.6) [%] | % HONO (pH 2.8) [%] | % NO2^− (pH 2.8) [%] | % HONO (pH 3.0) [%] | % NO2^− (pH 3.0) [%] | % HONO (pH 3.3) [%] | % NO2^− (pH 3.3) [%] | % HONO (pH 3.5) [%] | % NO2^− (pH 3.5) [%] | % HONO (pH 4.0) [%] | % NO2^− (pH 4.0) [%] | reduction of Listeria monocytogenes (Listeria monocytogenes) | reduction of E. coli O157:H7 (E. coli O157:H7)
1 | O=NO [Nitrite] | 83.3 | 16.7 | 76.0 | 24.0 | 66.7 | 33.3 | 50.0 | 50.0 | 38.8 | 61.2 | 16.6 | 63.4 |  | 
2 | O=C(O)/C=C/C(=O)O [fumaric acid] |  |  |  |  |  |  |  |  |  |  |  |  | much more effective than lactic or acetic acids | much more effective than lactic or acetic acids
